Columns and labels:
[1] = test system: BCRP-overexpressing H460/MX20 cells; assay: [3H]-mitoxantrone accumulation assay, H460/MX20; assay type: cell-based, human; details: resistant H460/MX20 cells; compound 5 μM; Figure 6A
Protocol: (§1) To determine the accumulation of drugs on H460, H460/MX20, KB-3-1, and KB-C2 cells, the cells ([…] cells/well) were seeded in the 24-well plates and incubated at 37 °C with 5% CO2 [17]. After 12 h of incubation, a test compound (5 µM) was added and the plates were incubated at 37 °C for 2 h. Cells were then incubated with 0.01 µM [^3H]-MX or [^3H]-paclitaxel-containing medium for an additional 2 h at 37 °C, with or without a test compound. The cells were washed twice with ice-cold phosphate-buffered saline (PBS), trypsinized and lysed at the end of incubation. The radioactivity was measured using the Packard TRICARB1 1900A liquid scintillation analyzer.

KB-3-1 cells = assay: [3H]-paclitaxel accumulation assay, KB-3-1; assay type: cell-based, human; details: parental cells KB-3-1; compound 5 μM; Figure 6B
Protocol: as §1

BCRP ATPase = target: T1, BCRP ATPase (Homo sapiens, UniProt Q9UNQ0); assay: Vanadate-sensitive BCRP ATPase assay; assay type: biochemical; details: membrane vesicles of High Five insect cells; Figure 10A,B
T1 construct: host or cells: High Five insect cells (membrane vesicles)
T1 sequence (Q9UNQ0 1-655): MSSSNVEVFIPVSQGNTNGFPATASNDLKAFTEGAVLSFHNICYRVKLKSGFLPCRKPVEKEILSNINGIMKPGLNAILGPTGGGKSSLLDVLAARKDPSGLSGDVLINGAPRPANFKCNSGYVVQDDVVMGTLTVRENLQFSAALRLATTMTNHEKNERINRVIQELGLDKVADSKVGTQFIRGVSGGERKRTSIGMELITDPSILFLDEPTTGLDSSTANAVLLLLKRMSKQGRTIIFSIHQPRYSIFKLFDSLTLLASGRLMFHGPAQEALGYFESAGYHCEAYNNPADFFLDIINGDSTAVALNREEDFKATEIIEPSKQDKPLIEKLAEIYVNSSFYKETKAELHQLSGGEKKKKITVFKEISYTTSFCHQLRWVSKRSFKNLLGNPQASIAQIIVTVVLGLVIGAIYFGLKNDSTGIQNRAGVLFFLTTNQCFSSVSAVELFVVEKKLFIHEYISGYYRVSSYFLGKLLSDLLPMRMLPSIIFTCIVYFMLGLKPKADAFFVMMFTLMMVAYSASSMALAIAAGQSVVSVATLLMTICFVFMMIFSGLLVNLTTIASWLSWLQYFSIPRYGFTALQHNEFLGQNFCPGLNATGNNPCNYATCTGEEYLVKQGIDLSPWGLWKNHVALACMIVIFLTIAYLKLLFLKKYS
Protocol: The vanadate (Vi)-sensitive ATPase activity of BCRP and P-gp in the membrane vesicles of High Five insect cells was measured as described previously. The results were presented as vanadate-sensitive ATPase activities by determining the difference in inorganic phosphate liberation measured in the presence and absence of sodium orthovanadate.

[2] = test system: P-gp-mediated multidrug-resistant cell line KB-C2; assay: MTT reversal assay with paclitaxel, KB-C2 cells; assay type: cell-based, human; details: Figure 5A
Protocol: The human lung cancer cell line H460, and its MX-selected derivative BCRP-overexpressing cell line, H460/MX20, were used in this study. The KB-C2 cell line was selected by colchicine (Alfa Aesar, Haverhill, MA, USA) (2 μg/mL) with human cervical carcinoma cell line KB-3-1.
Cytotoxicity tests and reversal experiments were performed using the 3-(4,5-dimethylthiazol-2-yl)-2,5-diphenyltetrazolium bromide (MTT) colorimetric assay. Cells were seeded evenly into 96-well plates. […] To determine the MDR reversal efficacy of the quinazolinamine derivatives, an anticancer drug (mitoxantrone, colchicine, paclitaxel or cisplatin) was added into the designated wells after 2 h pre-incubation with a quinazolinamine derivative or a positive control inhibitor at non-toxic concentrations. After 72 h of drug incubation, the MTT reagent (4 mg/mL) was added into the wells, and then the plates were incubated for an additional 4 h. Subsequently, the supernatant was discarded and 100 µL of dimethyl sulfoxide (DMSO) was added to dissolve the formazan crystals. Cell viability was determined by measuring the absorbance by using an accuSkan™ GO UV/Vis Microplate Spectrophotometer (Fisher Sci., Fair Lawn, NJ, USA) at a wavelength of 570 nm.

effect on Vi-sensitive BCRP ATPase activity (ATP hydrolysis) (BCRP ATPase): significantly stimulated
SMILES: c1ccc2c(Nc3ccc(C4CC4)cc3)nc(-c3ccncc3)nc2c1 [Compound 22, N-(4-Cyclopropylphenyl)-2-(pyridin-4-yl)quinazolin-4-amine]
accumulation of mitoxantrone [1]: increased the accumulation | accumulation of paclitaxel (KB-3-1 cells): did not increase | sensitization to paclitaxel [2]: could sensitize KB-C2 cells

— article PMC9953095, “Design, Synthesis and Biological Evaluation of Quinazolinamine Derivatives as Breast Cancer Resistance Protein and P-Glycoprotein Inhibitors with Improved Metabolic Stability” (Biomolecules, 2023)
